# Assay results reported in PMC8371461 (Frontiers in Pharmacology, 2021).
# pKd: −log10 of the molar value. Where two headings read alike, the source gives them in different places.
# Legend:
# ABL1-phosphorylated = target: T1, ABL1-phosphorylated (Homo sapiens, UniProt P00519); test: kinome scan; format: binding; details: 10 µM
# T1 construct: purchased DiscoverX (KINOMEscan)
# CASK = target: T2, CASK (Homo sapiens, UniProt O14936); test: kinome scan; format: binding; details: 10 µM
# T2 construct: purchased DiscoverX (KINOMEscan)
# CDC2L2 = target: T3, CDC2L2 (Homo sapiens, UniProt Q9UQ88); test: kinome scan; format: binding; details: 10 µM
# T3 construct: purchased DiscoverX (KINOMEscan)
# CDK2 = target: T4, CDK2 (Homo sapiens, UniProt P24941); test: kinome scan; format: binding; details: 10 µM
# T4 construct: purchased DiscoverX (KINOMEscan)
# CSF1R = target: T5, CSF1R (Homo sapiens, UniProt P07333); test: kinome scan; format: binding; details: 10 µM
# T5 construct: purchased DiscoverX (KINOMEscan)
# EPHA1 = target: T6, EPHA1 (Homo sapiens, UniProt P21709); test: kinome scan; format: binding; details: 10 µM
# T6 construct: purchased DiscoverX (KINOMEscan)
# T6 sequence (P21709 26-976): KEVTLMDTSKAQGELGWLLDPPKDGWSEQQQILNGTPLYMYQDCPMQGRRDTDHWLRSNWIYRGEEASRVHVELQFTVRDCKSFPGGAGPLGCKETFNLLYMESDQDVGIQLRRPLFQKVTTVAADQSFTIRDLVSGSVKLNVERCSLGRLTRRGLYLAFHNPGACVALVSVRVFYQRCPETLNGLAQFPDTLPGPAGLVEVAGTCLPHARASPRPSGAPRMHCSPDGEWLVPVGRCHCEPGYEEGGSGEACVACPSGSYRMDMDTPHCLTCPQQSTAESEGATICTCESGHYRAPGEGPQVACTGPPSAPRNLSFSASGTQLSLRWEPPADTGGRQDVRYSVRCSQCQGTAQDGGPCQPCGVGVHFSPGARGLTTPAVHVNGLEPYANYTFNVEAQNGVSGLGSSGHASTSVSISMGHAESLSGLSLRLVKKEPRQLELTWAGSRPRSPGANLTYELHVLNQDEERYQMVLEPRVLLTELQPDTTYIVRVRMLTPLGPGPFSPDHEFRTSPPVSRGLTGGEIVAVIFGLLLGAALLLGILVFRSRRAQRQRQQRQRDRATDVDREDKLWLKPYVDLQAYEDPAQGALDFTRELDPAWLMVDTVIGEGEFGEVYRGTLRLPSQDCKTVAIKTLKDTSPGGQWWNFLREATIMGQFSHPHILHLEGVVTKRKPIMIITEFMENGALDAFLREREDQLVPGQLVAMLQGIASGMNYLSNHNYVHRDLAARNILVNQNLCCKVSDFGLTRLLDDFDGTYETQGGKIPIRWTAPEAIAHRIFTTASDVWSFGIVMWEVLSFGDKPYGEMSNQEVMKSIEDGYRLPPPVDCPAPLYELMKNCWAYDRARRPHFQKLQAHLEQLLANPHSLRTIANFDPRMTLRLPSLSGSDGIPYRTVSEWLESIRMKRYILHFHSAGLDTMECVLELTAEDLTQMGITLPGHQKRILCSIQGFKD
# EPHB3 = target: T7, EPHB3 (Homo sapiens, UniProt P54753); test: kinome scan; format: binding; details: 10 µM
# T7 construct: purchased DiscoverX (KINOMEscan)
# ERN1 = target: T8, ERN1 (Homo sapiens, UniProt O75460); test: kinome scan; format: binding; details: 10 µM
# T8 construct: purchased DiscoverX (KINOMEscan)
# KIT(V559D) = target: T9, KIT(V559D) (Homo sapiens, UniProt P10721, V559D); test: kinome scan; format: binding
# T9 construct: purchased DiscoverX (KINOMEscan)
# T9 sequence (P10721 26-976 V559D): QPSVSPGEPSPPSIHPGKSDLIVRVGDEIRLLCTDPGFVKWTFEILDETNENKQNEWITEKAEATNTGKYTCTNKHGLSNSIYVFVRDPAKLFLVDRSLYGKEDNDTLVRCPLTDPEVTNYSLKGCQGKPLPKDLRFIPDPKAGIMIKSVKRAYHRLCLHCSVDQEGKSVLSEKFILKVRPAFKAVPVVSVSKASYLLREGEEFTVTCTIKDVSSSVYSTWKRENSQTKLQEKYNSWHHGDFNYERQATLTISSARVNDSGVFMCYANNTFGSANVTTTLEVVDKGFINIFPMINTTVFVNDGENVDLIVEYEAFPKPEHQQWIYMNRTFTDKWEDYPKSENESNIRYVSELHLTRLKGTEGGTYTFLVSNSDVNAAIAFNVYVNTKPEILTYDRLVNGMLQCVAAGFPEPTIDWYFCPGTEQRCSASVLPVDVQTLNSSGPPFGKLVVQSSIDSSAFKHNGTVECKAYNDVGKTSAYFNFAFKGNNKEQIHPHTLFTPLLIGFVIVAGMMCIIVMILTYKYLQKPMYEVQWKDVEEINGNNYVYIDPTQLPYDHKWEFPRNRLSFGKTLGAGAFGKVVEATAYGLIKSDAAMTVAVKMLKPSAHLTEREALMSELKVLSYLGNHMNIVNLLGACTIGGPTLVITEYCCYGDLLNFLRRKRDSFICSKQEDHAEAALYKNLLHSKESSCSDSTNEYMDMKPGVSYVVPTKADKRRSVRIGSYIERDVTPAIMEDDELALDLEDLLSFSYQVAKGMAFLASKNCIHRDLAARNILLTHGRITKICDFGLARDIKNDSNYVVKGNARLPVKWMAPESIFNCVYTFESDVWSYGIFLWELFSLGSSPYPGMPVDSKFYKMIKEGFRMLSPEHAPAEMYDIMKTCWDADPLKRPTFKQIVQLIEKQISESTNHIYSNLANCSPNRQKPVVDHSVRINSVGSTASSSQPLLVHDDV
# MST2 = target: T10, MST2 (Homo sapiens, UniProt Q13188); test: kinome scan; format: binding; details: 10 µM
# T10 construct: purchased DiscoverX (KINOMEscan)
# OSR1 = target: T11, OSR1 (Homo sapiens, UniProt O95747); test: kinome scan; format: binding; details: 10 µM
# T11 construct: purchased DiscoverX (KINOMEscan)
# p38-alpha = target: T12, p38-alpha (Homo sapiens, UniProt Q16539); test: kinome scan; format: binding; details: 10 µM
# T12 construct: purchased DiscoverX (KINOMEscan)
# PCTK3 = target: T13, PCTK3 (Homo sapiens, UniProt Q07002); test: kinome scan; format: binding; details: 10 µM
# T13 construct: purchased DiscoverX (KINOMEscan)
# T13 sequence (Q07002 whole entry): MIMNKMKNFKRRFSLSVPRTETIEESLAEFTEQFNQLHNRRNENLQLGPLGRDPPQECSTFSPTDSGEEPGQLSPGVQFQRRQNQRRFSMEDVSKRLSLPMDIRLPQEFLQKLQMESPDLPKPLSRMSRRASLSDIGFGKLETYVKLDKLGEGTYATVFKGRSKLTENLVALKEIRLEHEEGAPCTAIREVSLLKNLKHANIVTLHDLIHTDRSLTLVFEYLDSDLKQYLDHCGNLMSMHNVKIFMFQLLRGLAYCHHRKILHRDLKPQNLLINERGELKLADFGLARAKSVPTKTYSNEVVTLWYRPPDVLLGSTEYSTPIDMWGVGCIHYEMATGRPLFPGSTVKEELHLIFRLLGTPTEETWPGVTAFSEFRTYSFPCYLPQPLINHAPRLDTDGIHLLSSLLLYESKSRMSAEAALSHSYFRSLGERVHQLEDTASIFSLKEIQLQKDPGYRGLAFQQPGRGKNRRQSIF
# PIK3CA(E542K) = target: T14, PIK3CA(E542K) (Homo sapiens, UniProt P42336, E542K); test: kinome scan; format: binding; details: 10 µM
# T14 construct: purchased DiscoverX (KINOMEscan)
# PKAC-alpha = target: T15, PKAC-alpha (Homo sapiens, UniProt P17612); test: kinome scan; format: binding; details: 10 µM
# T15 construct: purchased DiscoverX (KINOMEscan)
# PLK1 = target: T16, PLK1 (Homo sapiens, UniProt P53350); test: kinome scan; format: binding; details: 10 µM
# T16 construct: purchased DiscoverX (KINOMEscan)
# T16 sequence (P53350 whole entry): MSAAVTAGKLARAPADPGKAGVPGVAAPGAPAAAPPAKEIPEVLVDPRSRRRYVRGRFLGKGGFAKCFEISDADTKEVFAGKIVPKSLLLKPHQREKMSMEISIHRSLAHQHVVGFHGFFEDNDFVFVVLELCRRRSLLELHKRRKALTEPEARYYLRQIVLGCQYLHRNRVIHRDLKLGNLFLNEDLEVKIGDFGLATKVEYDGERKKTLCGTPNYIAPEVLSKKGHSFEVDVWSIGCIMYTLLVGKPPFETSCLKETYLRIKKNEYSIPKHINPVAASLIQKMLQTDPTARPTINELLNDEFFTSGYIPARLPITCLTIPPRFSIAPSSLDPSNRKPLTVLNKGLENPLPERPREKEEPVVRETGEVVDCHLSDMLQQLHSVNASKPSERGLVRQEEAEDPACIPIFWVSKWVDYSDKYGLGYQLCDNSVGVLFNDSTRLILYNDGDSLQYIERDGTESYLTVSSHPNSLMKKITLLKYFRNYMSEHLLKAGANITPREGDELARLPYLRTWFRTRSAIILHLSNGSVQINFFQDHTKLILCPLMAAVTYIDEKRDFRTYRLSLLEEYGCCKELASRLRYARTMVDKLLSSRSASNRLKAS
# PRKCH = target: T17, PRKCH (Homo sapiens, UniProt P24723); test: kinome scan; format: binding; details: 10 µM
# T17 construct: purchased DiscoverX (KINOMEscan)
# PRKD3 = target: T18, PRKD3 (Homo sapiens, UniProt O94806); test: kinome scan; format: binding; details: 10 µM
# T18 construct: purchased DiscoverX (KINOMEscan)
# PRKG1 = target: T19, PRKG1 (Homo sapiens, UniProt Q13976); test: kinome scan; format: binding; details: 10 µM
# T19 construct: purchased DiscoverX (KINOMEscan)
# [1] = target: T20, RSK2(Kin.Dom.1-N-terminal) (Homo sapiens, UniProt P51812); test: kinome scan; format: binding; details: 10 µM
# T20 construct: RSK2(Kin.Dom.1-N-terminal); purchased DiscoverX (KINOMEscan)
# SNRK = target: T21, SNRK (Homo sapiens, UniProt Q9NRH2); test: kinome scan; format: binding; details: 10 µM
# T21 construct: purchased DiscoverX (KINOMEscan)
# CGR8 PSC = test: ATP quantification (ATPlite), cell proliferation/viability; format: cell-based, mouse; details: PSC exposed for three days
# Method: Cell viability was measured in PSC by using the ATPlite Luminescence Assay System (Perkin Elmer). PSC were plated in gelatine-coated 96-well plates at a density of 10,000 cells-cm^2 in their standard medium. At different time points, the substrate for emission of luminescence in the presence of ATP was added according to the manufacturer’s instructions. Luminescence was measured with the SpectraMax L Microplate Luminometer (Molecular Devices).
# The effects of the drug on proliferation or differentiation was next investigated in quantitative assays.
# Abelson (Abl) = Abelson (Abl) (Homo sapiens, UniProt P00519); test: Milano activity test; format: biochemical; details: wild-type Abl; for Milano activity test: up to 100 µM
# Chain of Abelson (Abl) (P00519 whole entry, species assumed): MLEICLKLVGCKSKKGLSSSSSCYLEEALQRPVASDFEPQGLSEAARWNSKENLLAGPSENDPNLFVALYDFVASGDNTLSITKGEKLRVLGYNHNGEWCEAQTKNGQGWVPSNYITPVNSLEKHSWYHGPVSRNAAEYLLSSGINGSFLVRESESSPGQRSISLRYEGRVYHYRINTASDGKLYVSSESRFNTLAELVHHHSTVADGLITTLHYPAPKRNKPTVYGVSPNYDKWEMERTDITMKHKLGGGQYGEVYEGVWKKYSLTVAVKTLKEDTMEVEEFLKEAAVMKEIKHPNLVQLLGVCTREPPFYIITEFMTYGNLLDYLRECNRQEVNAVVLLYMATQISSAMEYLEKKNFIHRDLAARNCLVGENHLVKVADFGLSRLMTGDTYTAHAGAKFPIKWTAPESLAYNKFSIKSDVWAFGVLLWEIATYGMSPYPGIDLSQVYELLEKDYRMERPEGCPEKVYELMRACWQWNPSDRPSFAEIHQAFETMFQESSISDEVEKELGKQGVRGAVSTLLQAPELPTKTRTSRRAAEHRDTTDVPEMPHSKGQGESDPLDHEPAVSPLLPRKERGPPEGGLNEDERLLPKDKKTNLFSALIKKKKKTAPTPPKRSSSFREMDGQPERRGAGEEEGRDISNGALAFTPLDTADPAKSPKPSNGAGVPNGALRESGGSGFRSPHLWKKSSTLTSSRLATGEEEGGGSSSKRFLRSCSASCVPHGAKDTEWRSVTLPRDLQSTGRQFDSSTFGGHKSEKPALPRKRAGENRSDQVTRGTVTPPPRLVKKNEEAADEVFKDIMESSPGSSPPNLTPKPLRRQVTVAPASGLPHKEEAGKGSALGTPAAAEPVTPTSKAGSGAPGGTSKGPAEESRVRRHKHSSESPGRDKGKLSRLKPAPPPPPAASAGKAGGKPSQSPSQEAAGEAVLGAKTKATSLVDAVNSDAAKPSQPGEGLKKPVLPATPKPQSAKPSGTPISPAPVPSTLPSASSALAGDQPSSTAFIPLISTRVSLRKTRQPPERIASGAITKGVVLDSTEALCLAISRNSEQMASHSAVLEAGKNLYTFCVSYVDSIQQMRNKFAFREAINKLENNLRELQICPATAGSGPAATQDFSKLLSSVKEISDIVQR
# MKNK2 = target: T22, MKNK2 (Homo sapiens, UniProt Q9HBH9); test: Kd select analysis (DiscoverX); format: binding
# T22 construct: purchased DiscoverX (KINOMEscan)
# Method: (§1) Hits are identified by an ultra-sensitive quantitative PCR detecting the specific DNA tag linked to each kinase (Supplementary Figure S2). The drug is used at a concentration of 10 µM and results are expressed as the percentage of signal (kinase PCR detection) with respect to DMSO control conditions. Thirteen hits were identified, with a signal reduction ranging from 0 to 27% (Table 3). Full raw data are presented in Supplementary Table S4. Interactions between 0 and 20% of reduction were considered to be the most significant ones. […] A sub-micromolar affinity (Kd<1 µM) was only seen with two PIKs (PIP4K2C, PI4KB) and GAK (Table 4). Inhibitions curves from these compounds are shown in Supplementary Figure S3.
# PI4KB = target: T23, PI4KB (Homo sapiens, UniProt Q9UBF8); test: Kd select analysis (DiscoverX); format: binding
# T23 construct: T7 phage fusion (kinase-tagged phage); purchased DiscoverX; host or cells: BL21-derived E. coli (T7 phage)
# T23 sequence (Q9UBF8 whole entry, the tested form may be a part): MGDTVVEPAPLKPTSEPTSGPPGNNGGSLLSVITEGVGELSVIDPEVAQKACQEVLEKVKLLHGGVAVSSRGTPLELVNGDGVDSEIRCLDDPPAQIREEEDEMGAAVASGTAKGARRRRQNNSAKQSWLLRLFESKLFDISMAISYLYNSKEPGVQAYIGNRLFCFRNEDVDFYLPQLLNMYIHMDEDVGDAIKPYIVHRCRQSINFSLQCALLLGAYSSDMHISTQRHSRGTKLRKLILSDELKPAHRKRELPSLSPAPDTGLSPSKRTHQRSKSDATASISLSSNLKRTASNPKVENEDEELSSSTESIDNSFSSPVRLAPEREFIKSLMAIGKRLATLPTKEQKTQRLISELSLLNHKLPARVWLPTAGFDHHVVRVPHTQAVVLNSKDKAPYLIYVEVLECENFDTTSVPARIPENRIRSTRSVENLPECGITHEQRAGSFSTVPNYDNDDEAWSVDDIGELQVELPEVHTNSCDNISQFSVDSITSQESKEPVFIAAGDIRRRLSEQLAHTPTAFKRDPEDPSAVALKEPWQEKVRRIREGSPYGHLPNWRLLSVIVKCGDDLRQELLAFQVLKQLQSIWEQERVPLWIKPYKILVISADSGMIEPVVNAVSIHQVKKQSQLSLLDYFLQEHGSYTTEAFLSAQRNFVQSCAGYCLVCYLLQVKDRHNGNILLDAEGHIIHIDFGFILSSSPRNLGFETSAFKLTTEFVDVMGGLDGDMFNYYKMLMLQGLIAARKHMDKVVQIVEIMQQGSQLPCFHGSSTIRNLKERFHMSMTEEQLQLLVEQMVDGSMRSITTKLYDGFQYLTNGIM
# Method: as §1
# T1 sequence (P00519 whole entry): as the sequence (P00519 whole entry, species assumed) above
compound,measurement,setting,value
"Nc1ccc(N=Nc2ccccc2)c(N)n1 [phenazopyridine, 2,6-diamino-3-(phenylazo)pyridine]",kinase inhibition,ABL1-phosphorylated,67
same,kinase inhibition,CASK,99
same,kinase inhibition,CDC2L2,84
same,kinase inhibition,CDK2,82
same,kinase inhibition,CSF1R,81
same,kinase inhibition,EPHA1,100
same,kinase inhibition,EPHB3,85
same,kinase inhibition,ERN1,82
same,remaining activity,"KIT(V559D); KIT(V559D), 10 µM",32
same,remaining binding at 10 µM,"KIT(V559D); c-KIT Val559Asp, best mutant, read-out: Kinome scan (% of control at 10 µM)",32%
same,kinase inhibition,MST2,73
same,kinase inhibition,OSR1,100
same,kinase inhibition,p38-alpha,100
same,kinase inhibition,PCTK3,75
same,kinase inhibition,PIK3CA(E542K),98
same,kinase inhibition,PKAC-alpha,100
same,remaining binding (% of control),PLK1,79
same,kinase inhibition,PRKCH,78
same,kinase inhibition,PRKD3,100
same,kinase inhibition,PRKG1,92
same,kinase inhibition,[1],100
same,kinase inhibition,SNRK,100
same,ATP levels,CGR8 PSC,unchanged
same,inhibition at 500 µM,"Abelson (Abl); 500 µM, data not shown",35%
same,Milano activity test,Abelson (Abl),not inhibited
same,Milano activity test,Abelson (Abl); listed as Phenazopyridine,Phenazopyridine is inactive at 100 µM
same,pKd,MKNK2,5.68
same,Kd,PI4KB; Phenazopyridine Kd (nM),730 nM
same,pKd,"PI4KB; sub-micromolar affinity, read-out: Kd",> 6.00
